We go through 15 molecules from ChEMBL document CHEMBL1151602, “Synthesis and bioactivity of new antineoplastic terpenylquinones” (Bioorg Med Chem Lett, 1996).

By IC50 is commonly meant the concentration at which inhibition is half-maximal. A high value points to a need for much substance.

What all share (type): functional, cell-based
One test concerns HT-29. Nature of the test: Cytotoxicity was measured against neoplastic cultured HT-29 cells of human colon carcinoma.
Another test deals with SK-MEL-28. Kind of test: Cytotoxicity was measured against neoplastic cultured MEL-28 cells of malign human melanoma.
In a further test the test system is A549. Nature of the test: Cytotoxicity was measured against neoplastic cultured A-549 cells of human lung carcinoma.
The next test relates to P388. Nature of the test: Cytotoxicity was measured against neoplastic cultured P-388 cells of murine leukemia. As to conditions: Mus musculus.

Regarding `CC(C)=CCCC1=CCC2C(=O)c3ccccc3C(=O)C2C1` (stereo not given), the IC50 in the test on HT-29 was above 34 µM; in the test with SK-MEL-28 it was above 34 µM; in the test on A549, 8.5 µM; in the test with P388, 8.5 µM.

For `CC(C)=CCCC1=CCC2=C(C1)C(=O)c1ccccc1C2=O`, the IC50 with HT-29 is above 34 µM; in the test on SK-MEL-28, above 34 µM; with A549, 17 µM; in the test on P388, 17 µM.

`CC(=O)Oc1cc(C)c(OC(C)=O)c2c1CC=C(CCC=C(C)C)C2`: the IC50 came out at 14.6 µM in the test on HT-29, 14.6 µM in the test with SK-MEL-28, 2.9 µM with A549 and 2.9 µM in the test on P388.

For the molecule `CC(C)=CCCC1=CCC2=C(C1)C(=O)C(C)=CC2=O`, the half-maximal inhibitory concentration (IC50) with HT-29 was determined as 19.5 µM; with SK-MEL-28 it was 9.8 µM; with A549, 3.9 µM; with P388, 3.9 µM.

In the case of `CC(C)=CCCC1=CCC2=C(C1)C(=O)C=CC2=O`, the 50% inhibitory concentration (IC50) was 2.1 µM with HT-29, 2.1 µM with SK-MEL-28, 2.1 µM with A549 and 1 µM in the test with P388.

As for `CC(=O)Oc1cc(C)c(OC(C)=O)c2cc(CCC=C(C)C)ccc12`, the IC50 with HT-29 amounted to 7.3 µM; in the test with SK-MEL-28, 3.5 µM; in the test with A549 it was 1.5 µM; in the test with P388 it was 2.9 µM.

Take `CC(C)=CCCc1ccc2c(c1)C(=O)C(C)=CC2=O`: the IC50 is 19.6 µM with HT-29, 9.8 µM in the test on SK-MEL-28, 3.9 µM in the test with A549 and 3.9 µM with P388.

Regarding `CC(C)=CCCc1ccc2c(c1)C(=O)C=CC2=O`, the IC50 in the test with HT-29 worked out at 1 µM; with SK-MEL-28 it was 0.4 µM; with A549, 1 µM; in the test on P388, 0.4 µM.

Regarding `CC(=O)Oc1ccc(OC(C)=O)c2c1CC=C(CCC=C(C)C)C2`, the IC50 with HT-29 was found to be 3.6 µM; in the test on SK-MEL-28 it was 3.6 µM; in the test with A549, 3.6 µM; with P388, 1.5 µM.

Take `CC(C)=CCCC1=CCc2c(O)cc(C)c(O)c2C1`: the half-maximal inhibitory concentration (IC50) was 19.4 µM in the test with HT-29, 19.4 µM in the test with SK-MEL-28, 3.8 µM in the test on A549 and 3.8 µM with P388.

For `CC(C)=CCCC1=CCc2c(O)ccc(O)c2C1`, the half-inhibitory concentration (IC50) worked out at 4.9 µM with HT-29, 4.9 µM in the test with SK-MEL-28, 4.9 µM in the test with A549 and 2.1 µM in the test on P388.

Take `CC1=CCC[C@H]2[C@](C)(Cc3cc(O)ccc3O)[C@@H](C)CC[C@]12C` [AVAROL]: the IC50 in the test on HT-29 worked out at 6 µM; with SK-MEL-28, 6 µM; with A549, 6 µM; in the test on P388, 3.1 µM.

In the case of `CC1=CCC[C@H]2[C@](C)(CC3=CC(=O)C=CC3=O)[C@@H](C)CC[C@]12C` [AVARONE], the IC50 in the test on HT-29 is 6 µM; in the test with SK-MEL-28, 6 µM; with A549 it was 6 µM; with P388, 3.1 µM.

Consider `O=C1C=CC(=O)C=C1` [BENZOQUINONE], for which the IC50 in the test on HT-29 was 46.2 µM; in the test with SK-MEL-28, 46.2 µM; in the test on A549, 46.2 µM; in the test on P388, 11.1 µM.

For `O=C1C=CC(=O)c2ccccc21` [NAPHTHOQUINONE], the IC50 in the test on HT-29, in the test with SK-MEL-28, with A549 and in the test with P388 was above 63.2 µM each time.
